Results taken from ChEMBL document CHEMBL1201862, “PubChem BioAssay data set” (2004).
Activity calls are given as the source filed them. Cut-off read from the data, not from the text of the source, for most assays here: actives have a measured EC50 and inactives only a lower limit.

Assays:
[1] = Luminescence Cell-Based Dose Response HTS to Identify Activators of Luciferase Translation or Activity in H4 […] Cells. [Related pubchem assays: 1829 (Project Summary), 1814 (Primary HTS)]; type: functional
[2] = Luminescence Cell-Based Dose Confirmation HTS to Identify Activators of 5'UTR Stem-Loop Driven Alpha-Synuclein mRNA Translation in H4 Neuroglioblastoma Cells. [Related pubchem assays: 1829 (Project Summary), 1814 (Primary HTS)]; type: functional
H4 = test: Luminescence Cell-Based Dose Response HTS to Identify Activators of 5'UTR Stem-Loop Driven Prion Protein mRNA Translation in H4 Neuroglioblastoma Cells. [Related pubchem assays: 1829 (Project Summary), 1814 (Primary HTS)]; type: functional; details: Homo sapiens
[3] = viability of uninfected HEp-2 cells – cell-based, HTS, cytotoxicity control for RSV inhibitor project, dose response (AID 2410); type: functional; details: human respiratory syncytial virus
Cytochrome P450 2C9 = Cytochrome P450 2C9 (Homo sapiens, UniProt P11712)
[4] = Luminescence Cell-Based Dose Retest to Confirm Inhibitors of Cancer Stem Cells. [Related pubchem assays (depositor defined):AID2717, AID2721]; type: functional; details: Homo sapiens
[5] = alpha-synuclein stem-loop luciferase translation blockers – H4 neuroglioma cells, luminescence, confirmation (AID 1988); type: functional, cell-based
[6] = Luminescence Cell-Based Dose Response HTS to Identify Inhibitors of 5'UTR Stem-Loop Driven Prion Protein mRNA Translation in H4 Neuroglioblastoma Cells. [Related pubchem assays: 1827 (Project Summary), 1813 (Primary HTS)]; type: functional
[7] = luciferase reporter signal suppression in cells – H4 neuroglioma cells, luminescence, dose response (AID 1990); type: functional, cell-based
INS1 = test: INS-1E survival protection against cytokine death – cell-based, luminescence, retest, dose response (AID 449756); type: functional; details: Rattus norvegicus;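 note: cell death triggered by IL-1 beta plus TNF-alpha plus IFN-gamma mixture; protective hits raise ATP signal compared with cytokine alone wells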

Sequence of Cytochrome P450 2C9 (P11712 whole entry): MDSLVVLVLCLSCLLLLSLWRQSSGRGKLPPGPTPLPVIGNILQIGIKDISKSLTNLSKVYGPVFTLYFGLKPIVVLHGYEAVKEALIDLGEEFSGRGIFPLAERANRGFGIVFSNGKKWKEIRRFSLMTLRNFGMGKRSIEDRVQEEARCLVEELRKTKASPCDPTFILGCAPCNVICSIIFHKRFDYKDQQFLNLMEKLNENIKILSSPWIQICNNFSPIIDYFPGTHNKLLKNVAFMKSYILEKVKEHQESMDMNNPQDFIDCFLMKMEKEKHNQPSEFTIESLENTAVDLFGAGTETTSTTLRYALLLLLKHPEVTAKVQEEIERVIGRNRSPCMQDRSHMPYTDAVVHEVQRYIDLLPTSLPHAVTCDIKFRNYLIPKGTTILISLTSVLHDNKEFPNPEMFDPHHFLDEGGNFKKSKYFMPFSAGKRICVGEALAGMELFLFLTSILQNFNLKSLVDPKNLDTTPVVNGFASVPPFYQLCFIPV

Row | Structure (SMILES) | EC50 [1] | EC50 [2] | EC50 (H4) | CC50 [3] | also measured
1 | CCN(C(=O)COC(=O)/C=C/c1cnc2ccccc2n1)c1ccccc1 | 0.49 µM (active) | > 120 µM (not active) | > 120 µM (not active) | – | –
2 | CC1CCC(NC(=O)c2cc3c(=O)n(C)c4ccccc4c3n2C)CC1 (configuration not stated) | 14.3 µM (active) | 7.84 µM (active) | > 120 µM (not active) | – | –
3 | O=C(Cn1c(=S)nc2ccccn21)N1CCc2ccccc2C1 | 30.2 µM (active) | 5.67 µM (active) | 10.3 µM (active) | – | –
4 | COC(=O)C1=C(C)N(c2cc(C)cc(C)c2)/C(=C/c2ccc(O)cc2)C1=O | – | – | – | 18.4 µM (active) | –
5 | CCNC(=O)Nc1ccccc1C(=O)OC | – | – | – | 27.7 µM (active) | –
6 | CCn1nc(C)c(CN2CCc3c([nH]c4ccccc34)C2C(C)(C)C)c1C (configuration not stated) | – | – | – | > 50 µM (active) | –
7 | Oc1c2nc3ccccc3c-2ncn1CCC1=CCCCC1 | 46.6 µM (active) | 43.3 µM (active) | 1.72 µM (active) | – | –
8 | COc1ccc2c(c1)C(=O)CC(c1ccc3c(c1)OCCO3)O2 (configuration not stated) | 42 µM (active) | 7.88 µM (active) | 13.9 µM (active) | – | –
9 | O=C(Nc1ccc(N2CCOCC2)cc1)c1cc2c(s1)CCCC2 | – | – | – | > 50 µM (active) | –
10 | Cn1c(C(=O)N2COCC2(C)C)cc2c(=O)n3ccccc3nc21 | 12 µM (active) | 17.2 µM (active) | 61.7 µM (active) | – | AC50 (Cytochrome P450 2C9): 5.01 µM (inconclusive)
11 | NC(=O)NNC1=Nc2cccc3cccc1c23 | – | – | – | > 50 µM (active) | –
12 | O=C(Nc1ccc(N2CCCCC2)cc1)C(Cl)c1ccccc1 (configuration not stated) | 0.125 µM (active) | – | 12.8 µM (active) | – | –
13 | CCOC(=O)C1=C(C)N=c2s/c(=C/c3ccc(OCC(=O)O)cc3)c(=O)n2C1c1ccc(F)cc1 (configuration not stated) | – | – | – | 39.8 µM (active) | –
14 | Cc1cccc(NC(=O)c2cnc3sccn3c2=O)n1 | 32.9 µM (active) | 0.125 µM (active) | 63.9 µM (active) | – | –
15 | O=C(COC(=O)c1ccc2[nH]c3c(c2c1)CCCC3)Nc1ccccc1 | 41.9 µM (active) | 5.12 µM (active) | > 120 µM (not active) | – | –
16 | CN(C)c1ccc(-c2cc([C@H]3[C@@H]4C=CCC[C@@]4(C)C(=O)N3Cc3ccccc3)ccc2F)cc1 | – | – | – | 13.1 µM (active) | AC50 [4]: 2.28 µM (active)
17 | O=C(O)c1nc2ccccc2nc1C(=O)O | 25.5 µM (active) | 11.1 µM (active) | > 120 µM (not active) | – | –
18 | S=C(Nc1cc(Cl)cc(Cl)c1)NC1CCN(Cc2ccccc2)CC1 | – | – | – | – | EC50 [5]: 11.4 µM (active); AC50 [4]: 5.23 µM (active); EC50 [6]: > 120 µM (not active); EC50 [7]: > 120 µM (not active)
19 | COc1cccc(N(C(=O)c2snc(C(N)=O)c2N)C(C(=O)NCc2ccccc2)c2ccc(O)cc2)c1 (configuration not stated) | – | – | – | > 50 µM (active) | –
20 | Oc1c(/C=N/c2ccc(Cl)cn2)sc2ccccc12 | 12.3 µM (active) | 15.4 µM (active) | 15.5 µM (active) | – | –
21 | Cc1ccc(/C=c2/sc3n(c2=O)CCCN=3)o1 | 0.161 µM (active) | – | 11.8 µM (active) | – | –
22 | CC1=NC(C)=C(C(=O)OCCNC(=O)c2ccccc2O)C(c2ccccc2[N+](=O)[O-])/C1=C(\O)OCC1CCCO1 (configuration not stated) | – | – | – | – | EC50 [5]: 78.4 µM (active); AC50 (INS1): 40.6 µM (active); EC50 [6]: > 120 µM (not active); EC50 [7]: 17 µM (active)
